One experiment has as its target T1, SIRT2 (Homo sapiens, UniProt Q8IXJ6).
T1 sequence (Q8IXJ6 1-389): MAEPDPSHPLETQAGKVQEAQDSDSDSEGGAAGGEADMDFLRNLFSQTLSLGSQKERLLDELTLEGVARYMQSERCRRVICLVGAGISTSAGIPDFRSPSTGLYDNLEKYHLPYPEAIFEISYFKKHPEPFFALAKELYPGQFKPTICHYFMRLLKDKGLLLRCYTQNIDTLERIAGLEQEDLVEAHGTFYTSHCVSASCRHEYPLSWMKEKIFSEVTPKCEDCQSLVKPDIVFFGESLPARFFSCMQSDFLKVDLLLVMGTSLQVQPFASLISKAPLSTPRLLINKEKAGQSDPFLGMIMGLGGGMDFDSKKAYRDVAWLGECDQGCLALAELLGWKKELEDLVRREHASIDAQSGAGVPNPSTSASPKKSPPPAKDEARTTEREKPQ
The experiment is described as follows: mass spectrometry based assay to identify modulators of SIRT2 inhibition. It is filed as biochemical. From the text: A mass spectrometry based assay was used to identify modulators of SIRT2 inhibition. […] The peptide is labeled with the fluorophore 5TMR (excitation 540 nm/emission 580 nm) at the C-terminus. The sequence of the peptide substrate is based on p53 with several modifications. In addition, the methionine residue naturally present in the sequence was replaced with the norleucine because the methionine may be susceptible to oxidation during synthesis and purification.
Test compounds may be added to the reaction as described above. The SirT2 gene is cloned into a T7-promoter containing vector and transformed into BL21(DE3). After the 30 minute incubation with SIRT2, 10 μL of 10% formic acid is added to stop the reaction. Reactions are sealed and frozen for later mass spec analysis. Determination of the mass of the substrate peptide allows for precise determination of the degree of acetylation (i.e. starting material) as compared to deacetylated peptide (product).
(§1) This timepoint is the same as that used for test compounds and, within the linear range, the endpoint represents a change in velocity.
For the above assay, SIRT2 protein was expressed and purified as follows. The SirT2 gene was cloned into a T7-promoter containing vector and transformed into BL21(DE3) with chaperone plasmid. The protein was expressed by induction with 0.3 mM IPTG as an N-terminal His-tag fusion protein at 18° C. overnight and harvested at 30,000×g. Cells were lysed with sonication in lysis buffer (50 mM Tris-HCl, 10% glycerol, 300 mM NaCl, pH 7.8) for 10 min. The protein was purified over a Ni-NTA column (GE Healthcare) and eluted with lysis buffer containing 100 to 250 mM imidazole. Fractions containing target protein were pooled and TEV protease (Invitrogen) was added to the protein and incubated at 4° C. overnight in lysis buffer to remove the N-terminal His tag. The treated sample was added back on Ni-NTA column. Target protein was obtained by eluting with lysis buffer with 5 mM imidazole and loaded onto the Q-Sepharose F.F. column. The flow-through fraction of Q-Sepharose F.F. column was then directly re-adsorbed on the SP-Sepharose F.F. column and eluted with 20 mM Tris-HCl, 100 mM NaCl, pH 7.8. The protein was concentrated with 50 ml Amicon Ultra centrifugal-filter device (Millipore), then loaded on S-200 gel filtration column and eluted with 20 mM Tris-HCl, 200 mM NaCl, pH 8.0. The protein was aliquoted and frozen at −80° C. until further use.

The target in another experiment is T2, SIRT1 (Homo sapiens, UniProt Q96EB6).
T2 sequence (Q96EB6 1-747): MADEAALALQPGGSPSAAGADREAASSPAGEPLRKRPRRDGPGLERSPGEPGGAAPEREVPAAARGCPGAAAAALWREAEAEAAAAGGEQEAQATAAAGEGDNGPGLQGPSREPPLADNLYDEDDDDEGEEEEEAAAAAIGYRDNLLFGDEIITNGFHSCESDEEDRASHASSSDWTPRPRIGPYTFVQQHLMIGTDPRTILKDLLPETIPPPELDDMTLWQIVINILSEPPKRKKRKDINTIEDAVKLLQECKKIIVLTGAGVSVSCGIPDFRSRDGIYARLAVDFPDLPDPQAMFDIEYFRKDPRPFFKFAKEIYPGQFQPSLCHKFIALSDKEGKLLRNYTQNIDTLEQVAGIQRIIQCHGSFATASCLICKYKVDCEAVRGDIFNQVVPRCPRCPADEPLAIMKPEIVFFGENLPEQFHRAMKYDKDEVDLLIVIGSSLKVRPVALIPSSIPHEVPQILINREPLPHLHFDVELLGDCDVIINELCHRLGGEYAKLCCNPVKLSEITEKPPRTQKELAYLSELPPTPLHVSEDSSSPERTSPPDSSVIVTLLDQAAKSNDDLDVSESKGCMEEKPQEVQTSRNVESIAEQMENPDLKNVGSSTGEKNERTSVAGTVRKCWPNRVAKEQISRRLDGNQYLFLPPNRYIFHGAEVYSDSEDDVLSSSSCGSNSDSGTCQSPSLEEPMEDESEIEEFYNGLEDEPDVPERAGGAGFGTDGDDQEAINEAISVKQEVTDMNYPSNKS
In words: mass spectrometry based assay to identify modulators of SIRT1 activity. The experiment is classed as biochemical. Particulars: for Emax: 25 min, percent maximum fold activation of SIRT1, read-out: SIRT1 % FOLD ACT.; for EC1.5 (concentration for 1.5-fold activation): concentration for 1.5-fold activation of SIRT1 deacetylase, 0.5 μM peptide substrate, 120 μM βNAD+, 10 nM SIRT1, 25 min at 25° C.
Text: A mass spectrometry based assay was used to identify modulators of SIRT1 activity. […] The peptide is labeled with the fluorophore 5TMR (excitation 540 nm/emission 580 nm) at the C-terminus. The sequence of the peptide substrate is based on p53 with several modifications. In addition, the methionine residue naturally present in the sequence was replaced with the norleucine because the methionine may be susceptible to oxidation during synthesis and purification.
Test compounds may be added to the reaction as described above. The SirT1 gene is cloned into a T7-promoter containing vector and transformed into BL21(DE3). After the 25 minute incubation with SIRT1, 10 μL of 10% formic acid is added to stop the reaction. Reactions are sealed and frozen for later mass spec analysis. Determination of the mass of the substrate peptide allows for precise determination of the degree of acetylation (i.e. starting material) as compared to deacetylated peptide (product).
as §1
For the above assay, SIRT1 protein was expressed and purified as follows. The SirT1 gene was cloned into a T7-promoter containing vector and transformed into BL21(DE3). The protein was expressed by induction with 1 mM IPTG as an N-terminal His-tag fusion protein at 18° C. overnight and harvested at 30,000×g. Cells were lysed with lysozyme in lysis buffer (50 mM Tris-HCl, 2 mM Tris[2-carboxyethyl]phosphine (TCEP), 10 μM ZnCl2, 200 mM NaCl) and further treated with sonication for 10 min for complete lysis. The protein was purified over a Ni-NTA column (Amersham) and fractions containing pure protein were pooled, concentrated and run over a sizing column ([…]). The peak containing soluble protein was collected and run on an Ion-exchange column (MonoQ). Gradient elution (200 mM-500 mM NaCl) yielded pure protein. This protein was concentrated and dialyzed against dialysis buffer (20 mM Tris-HCl, 2 mM TCEP) overnight. The protein was aliquoted and frozen at −80° C. until further use.

Setting [1] is: 2.68 μM peptide substrate, 135 μM βNAD+, 50 nM SIRT2, 30 min at room temperature, read-out: SIRT2 IC50 UM.

Where two headings read alike, the source gives them in different places. A value given as a limit tells only on which side of the number the result lay.

Consider `Cc1nc2cccc(NC(=O)c3cscn3)c2c(=O)n1-c1cccc(C(F)(F)F)c1` [Compound 1, N-(2-methyl-4-oxo-3-(3-(trifluoromethyl)phenyl)-3,4-dihydroquinazolin-5-yl)thiazole-4-carboxamide], for which the IC50 (as a rule, the concentration at which inhibition is half-maximal) on SIRT2 (setting [1]) was less than 10 µM.
For the molecule `Cc1nc2cccc(NC(=O)c3cnccn3)c2c(=O)n1-c1cccc(C(F)(F)F)c1` [Compound 2, N-(2-methyl-4-oxo-3-(3-(trifluoromethyl)phenyl)-3,4-dihydroquinazolin-5-yl)pyrazine-2-carboxamide], the Emax on SIRT1 is greater than 150%. Further, the EC1.5 (concentration for 1.5-fold activation) at SIRT1 (read-out: SIRT1 EC1.5 µM) is less than 50 µM. Also, the IC50 against SIRT2 is 10 to 50 µM.
`Cc1nc2cccc(NC(=O)c3cscn3)c2c(=O)n1-c1cccc(OC(F)(F)F)c1` [Compound 3, N-(2-methyl-4-oxo-3-(3-(trifluoromethoxy)phenyl)-3,4-dihydroquinazolin-5-yl)thiazole-4-carboxamide]: on SIRT1, the Emax was less than 150%. Moreover, at SIRT1 (read-out: SIRT1 EC1.5 UM), the EC1.5 (concentration for 1.5-fold activation) is greater than 50 µM. Besides, at SIRT2 (setting [1]), the IC50 was less than 10 µM.
Take `Cc1nc2cccc(NC(=O)c3cnccn3)c2c(=O)n1-c1cccc(OC(F)(F)F)c1` [Compound 4, N-(2-methyl-4-oxo-3-(3-(trifluoromethoxy)phenyl)-3,4-dihydroquinazolin-5-yl)pyrazine-2-carboxamide]: on SIRT1, the Emax was greater than 150%. In addition, the EC1.5 (concentration for 1.5-fold activation) at SIRT1 (read-out: SIRT1 EC1.5 UM) was less than 50 µM. Also, on SIRT2 (setting [1]), the IC50 lay within 10 to 50 µM.
Taken in the same sequence, the figures for `Cc1nc2cccc(NC(=O)Cc3cccnc3)c2c(=O)n1-c1cccc(OC(F)(F)F)c1` [Compound 5, N-(2-methyl-4-oxo-3-(3-(trifluoromethoxy)phenyl)-3,4-dihydroquinazolin-5-yl)-2-(pyridin-3-yl)acetamide] were less than 150%, greater than 50 µM and 10 to 50 µM.
In the case of `Cc1nc2cccc(NC(=O)c3cccc(OCC(O)CO)n3)c2c(=O)n1-c1cccc(C(F)(F)F)c1` (stereo not drawn) [Compound 6, 6-(2,3-dihydroxypropoxy)-N-(2-methyl-4-oxo-3-(3-(trifluoromethyl)phenyl)-3,4-dihydroquinazolin-5-yl)picolinamide], at SIRT1, the Emax is greater than 150%. In addition, the EC1.5 (concentration for 1.5-fold activation) at SIRT1 (read-out: SIRT1 EC1.5 µM) was less than 50 µM.
As for `Cc1nc2cccc(NC(=O)c3cccc(CN4CCOCC4)n3)c2c(=O)n1-c1cccc(C(F)(F)F)c1` [Compound 7, N-(2-methyl-4-oxo-3-(3-(trifluoromethyl)phenyl)-3,4-dihydroquinazolin-5-yl)-6-(morpholinomethyl)picolinamide], at SIRT1, the Emax was greater than 150%. Besides, the EC1.5 (concentration for 1.5-fold activation) on SIRT1 (read-out: SIRT1 EC1.5 UM) is less than 50 µM.
Taken in the same sequence, the figures for `Cc1nc2cccc(NC(=O)c3cscn3)c2c(=O)n1-c1cccc(C(F)(F)F)c1` [Compound 8, N-(2-methyl-4-oxo-3-(3-(trifluoromethyl)phenyl)-3,4-dihydroquinazolin-5-yl)thiazole-4-carboxamide] were greater than 150% and less than 50 µM.
Taken in the same sequence, the figures for `Cc1nc2cccc(NC(=O)c3cccc(OCC(O)CO)n3)c2c(=O)n1-c1cccc(OC(F)(F)F)c1` (stereo not drawn) [Compound 9, 6-(2,3-dihydroxypropoxy)-N-(2-methyl-4-oxo-3-(3-(trifluoromethoxy)phenyl)-3,4-dihydroquinazolin-5-yl)picolinamide] were greater than 150% and less than 50 µM.

Values taken from US20120165330A1, “QUINAZOLINONE AND RELATED ANALOGS AS SIRTUIN MODULATORS” (Sirtris Pharmaceuticals, Inc., priority 2010, published 2012).
